Source: ChEMBL document CHEMBL3991601, “The target landscape of clinical kinase drugs” (Science, 2017)
Calls of active or inactive are those of the source.

Legend:
[1] = biological target: Protein kinase C theta type (Homo sapiens, UniProt Q04759)
Myosin-10 = Myosin-10 (Homo sapiens, UniProt P35580)
[2] = biological target: T1, Isoleucine--tRNA ligase, mitochondrial (Homo sapiens, UniProt Q9NSE4)
T1 sequence (Q9NSE4 whole entry): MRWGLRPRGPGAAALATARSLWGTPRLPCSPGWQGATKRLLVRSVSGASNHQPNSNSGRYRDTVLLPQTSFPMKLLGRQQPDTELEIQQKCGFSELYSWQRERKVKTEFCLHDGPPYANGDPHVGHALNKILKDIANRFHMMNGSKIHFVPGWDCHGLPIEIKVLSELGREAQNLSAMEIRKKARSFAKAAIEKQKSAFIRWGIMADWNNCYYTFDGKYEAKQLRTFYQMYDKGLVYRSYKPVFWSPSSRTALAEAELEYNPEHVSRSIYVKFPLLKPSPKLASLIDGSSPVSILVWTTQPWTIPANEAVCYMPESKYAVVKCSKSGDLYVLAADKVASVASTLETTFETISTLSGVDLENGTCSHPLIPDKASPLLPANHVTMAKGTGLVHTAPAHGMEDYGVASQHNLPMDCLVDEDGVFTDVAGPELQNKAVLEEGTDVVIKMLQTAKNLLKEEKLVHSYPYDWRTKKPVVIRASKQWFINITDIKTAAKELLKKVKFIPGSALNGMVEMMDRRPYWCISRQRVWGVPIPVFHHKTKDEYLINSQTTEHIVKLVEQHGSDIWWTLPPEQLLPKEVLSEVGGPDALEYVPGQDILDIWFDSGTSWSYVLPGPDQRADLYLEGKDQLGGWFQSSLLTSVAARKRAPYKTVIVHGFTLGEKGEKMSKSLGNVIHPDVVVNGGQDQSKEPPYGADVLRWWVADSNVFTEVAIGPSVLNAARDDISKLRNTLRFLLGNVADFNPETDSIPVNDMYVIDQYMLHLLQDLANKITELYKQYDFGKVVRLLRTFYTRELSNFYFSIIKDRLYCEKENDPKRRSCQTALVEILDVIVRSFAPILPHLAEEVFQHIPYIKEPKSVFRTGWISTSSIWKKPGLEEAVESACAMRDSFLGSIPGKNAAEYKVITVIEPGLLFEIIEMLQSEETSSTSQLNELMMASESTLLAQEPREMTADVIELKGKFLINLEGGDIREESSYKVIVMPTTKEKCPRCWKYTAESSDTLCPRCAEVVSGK

[3] = biological target: Dual specificity protein kinase CLK4 (Homo sapiens, UniProt Q9HAZ1)
[4] = biological target: Choline-phosphate cytidylyltransferase A (Homo sapiens, UniProt P49585)
[5] = biological target: Dual specificity testis-specific protein kinase 1 (Homo sapiens, UniProt Q15569)
[6] = biological target: Membrane-associated progesterone receptor component 1 (Homo sapiens, UniProt O00264)
[7] = biological target: Hepatocyte growth factor receptor (Homo sapiens, UniProt P08581)
[8] = biological target: Glycogen synthase kinase-3 beta (Homo sapiens, UniProt P49841)
[9] = biological target: Uncharacterized aarF domain-containing protein kinase 5 (Homo sapiens, UniProt Q3MIX3)
[10] = biological target: Epidermal growth factor receptor (Homo sapiens, UniProt P00533)
[11] = biological target: Dual specificity protein kinase CLK2 (Homo sapiens, UniProt P49760)
[12] = biological target: Rho-associated protein kinase 1 (Homo sapiens, UniProt Q13464)
[13] = biological target: Dual specificity testis-specific protein kinase 2 (Homo sapiens, UniProt Q96S53)
[14] = biological target: Dual specificity mitogen-activated protein kinase kinase 1 (Homo sapiens, UniProt Q02750)
[15] = biological target: Dual specificity protein kinase CLK3 (Homo sapiens, UniProt P49761); assay type: subcellular, K-562, COLO 205, SK-N-BE(2) and MV-4-11, Cell lysate; settings: read-out: Kd apparent
[16] = biological target: T2, MAP/microtubule affinity-regulating kinase 4 (Homo sapiens, UniProt Q96L34)
T2 sequence (Q96L34 whole entry): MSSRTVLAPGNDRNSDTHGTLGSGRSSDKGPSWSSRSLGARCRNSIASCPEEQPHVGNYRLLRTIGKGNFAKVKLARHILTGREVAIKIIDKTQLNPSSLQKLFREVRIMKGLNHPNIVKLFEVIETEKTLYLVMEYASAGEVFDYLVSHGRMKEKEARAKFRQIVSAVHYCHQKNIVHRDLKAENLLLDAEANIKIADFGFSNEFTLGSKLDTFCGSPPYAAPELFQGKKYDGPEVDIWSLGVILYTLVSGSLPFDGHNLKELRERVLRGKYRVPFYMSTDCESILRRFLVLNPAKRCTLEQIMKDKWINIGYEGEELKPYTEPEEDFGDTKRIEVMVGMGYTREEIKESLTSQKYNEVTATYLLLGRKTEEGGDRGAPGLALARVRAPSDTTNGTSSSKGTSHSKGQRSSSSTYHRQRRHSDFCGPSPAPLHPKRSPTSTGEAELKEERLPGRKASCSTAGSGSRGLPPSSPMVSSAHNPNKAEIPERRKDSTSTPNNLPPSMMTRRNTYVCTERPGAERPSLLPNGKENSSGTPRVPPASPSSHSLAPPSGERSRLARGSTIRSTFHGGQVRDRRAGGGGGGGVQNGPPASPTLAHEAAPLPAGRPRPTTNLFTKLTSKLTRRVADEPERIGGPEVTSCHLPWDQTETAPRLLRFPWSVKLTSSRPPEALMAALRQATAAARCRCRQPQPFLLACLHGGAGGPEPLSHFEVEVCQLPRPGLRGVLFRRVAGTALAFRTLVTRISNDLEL

[17] = biological target: PAS domain-containing serine/threonine-protein kinase (Homo sapiens, UniProt Q96RG2)
[18] = biological target: Serine/threonine-protein kinase Nek7 (Homo sapiens, UniProt Q8TDX7)
Also: in the data inactive means no Kd found up to 30 µM.

Myosin-10, sequence (P35580 whole entry): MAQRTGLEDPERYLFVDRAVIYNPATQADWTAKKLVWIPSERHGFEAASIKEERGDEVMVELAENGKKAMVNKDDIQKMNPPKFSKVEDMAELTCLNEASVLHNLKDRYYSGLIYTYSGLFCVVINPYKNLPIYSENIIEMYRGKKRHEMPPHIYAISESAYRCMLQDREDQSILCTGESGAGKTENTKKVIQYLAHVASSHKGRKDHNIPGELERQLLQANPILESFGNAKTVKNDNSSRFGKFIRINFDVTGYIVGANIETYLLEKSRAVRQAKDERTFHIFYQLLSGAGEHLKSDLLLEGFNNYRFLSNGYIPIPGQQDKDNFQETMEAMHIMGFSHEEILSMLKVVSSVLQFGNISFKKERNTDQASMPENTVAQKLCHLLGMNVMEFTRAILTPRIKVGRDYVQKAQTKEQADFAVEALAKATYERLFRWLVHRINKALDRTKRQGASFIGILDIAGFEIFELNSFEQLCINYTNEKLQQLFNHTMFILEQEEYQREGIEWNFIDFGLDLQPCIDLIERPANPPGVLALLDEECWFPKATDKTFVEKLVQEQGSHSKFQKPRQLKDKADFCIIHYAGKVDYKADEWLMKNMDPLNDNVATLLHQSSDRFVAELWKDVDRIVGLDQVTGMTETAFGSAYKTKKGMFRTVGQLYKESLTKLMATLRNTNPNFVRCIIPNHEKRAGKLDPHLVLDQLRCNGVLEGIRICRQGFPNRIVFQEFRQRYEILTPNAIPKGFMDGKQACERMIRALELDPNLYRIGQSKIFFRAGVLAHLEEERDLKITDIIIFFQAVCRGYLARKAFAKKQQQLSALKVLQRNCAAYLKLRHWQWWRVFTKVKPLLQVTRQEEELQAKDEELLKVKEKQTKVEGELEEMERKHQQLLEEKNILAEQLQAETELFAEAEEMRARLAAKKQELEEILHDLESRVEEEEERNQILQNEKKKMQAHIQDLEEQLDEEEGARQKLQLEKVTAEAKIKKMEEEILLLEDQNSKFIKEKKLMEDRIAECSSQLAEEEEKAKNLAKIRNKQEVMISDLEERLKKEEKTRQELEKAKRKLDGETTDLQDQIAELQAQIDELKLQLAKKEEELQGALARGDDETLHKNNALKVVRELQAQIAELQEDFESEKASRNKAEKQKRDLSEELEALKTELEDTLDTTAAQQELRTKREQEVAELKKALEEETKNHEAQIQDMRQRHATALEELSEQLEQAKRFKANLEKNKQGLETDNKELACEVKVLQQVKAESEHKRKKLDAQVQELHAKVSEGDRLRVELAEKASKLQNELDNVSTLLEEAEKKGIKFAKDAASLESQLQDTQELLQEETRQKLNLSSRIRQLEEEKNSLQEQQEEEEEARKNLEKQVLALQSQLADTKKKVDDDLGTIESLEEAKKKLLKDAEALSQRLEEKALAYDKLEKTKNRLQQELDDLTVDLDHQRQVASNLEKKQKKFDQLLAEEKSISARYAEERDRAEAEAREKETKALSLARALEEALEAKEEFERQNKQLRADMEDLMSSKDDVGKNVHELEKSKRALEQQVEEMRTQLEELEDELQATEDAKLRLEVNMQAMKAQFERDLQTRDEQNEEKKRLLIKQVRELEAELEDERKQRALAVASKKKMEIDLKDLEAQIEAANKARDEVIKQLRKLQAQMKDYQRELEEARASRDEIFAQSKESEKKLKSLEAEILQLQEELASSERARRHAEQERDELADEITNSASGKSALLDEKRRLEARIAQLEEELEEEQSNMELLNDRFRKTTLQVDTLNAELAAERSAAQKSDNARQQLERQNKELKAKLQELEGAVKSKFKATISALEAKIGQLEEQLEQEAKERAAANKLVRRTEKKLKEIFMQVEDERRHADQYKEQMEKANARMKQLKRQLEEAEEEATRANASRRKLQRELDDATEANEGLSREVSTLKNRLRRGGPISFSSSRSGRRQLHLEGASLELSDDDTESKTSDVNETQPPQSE
Dual specificity protein kinase CLK3, sequence (P49761 whole entry): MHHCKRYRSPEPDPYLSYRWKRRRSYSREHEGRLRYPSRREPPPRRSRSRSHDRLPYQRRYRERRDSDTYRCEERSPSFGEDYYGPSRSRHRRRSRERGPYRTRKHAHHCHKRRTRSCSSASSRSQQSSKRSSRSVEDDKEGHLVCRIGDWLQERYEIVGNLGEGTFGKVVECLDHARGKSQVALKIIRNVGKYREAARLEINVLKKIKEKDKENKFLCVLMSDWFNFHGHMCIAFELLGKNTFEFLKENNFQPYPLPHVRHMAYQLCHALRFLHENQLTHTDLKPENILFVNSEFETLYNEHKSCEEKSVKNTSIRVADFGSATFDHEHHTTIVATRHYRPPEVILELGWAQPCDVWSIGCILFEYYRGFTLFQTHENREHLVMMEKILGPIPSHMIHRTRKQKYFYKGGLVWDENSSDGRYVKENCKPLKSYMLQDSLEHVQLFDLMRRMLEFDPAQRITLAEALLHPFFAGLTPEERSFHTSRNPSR
Dual specificity protein kinase CLK4, sequence (Q9HAZ1 whole entry): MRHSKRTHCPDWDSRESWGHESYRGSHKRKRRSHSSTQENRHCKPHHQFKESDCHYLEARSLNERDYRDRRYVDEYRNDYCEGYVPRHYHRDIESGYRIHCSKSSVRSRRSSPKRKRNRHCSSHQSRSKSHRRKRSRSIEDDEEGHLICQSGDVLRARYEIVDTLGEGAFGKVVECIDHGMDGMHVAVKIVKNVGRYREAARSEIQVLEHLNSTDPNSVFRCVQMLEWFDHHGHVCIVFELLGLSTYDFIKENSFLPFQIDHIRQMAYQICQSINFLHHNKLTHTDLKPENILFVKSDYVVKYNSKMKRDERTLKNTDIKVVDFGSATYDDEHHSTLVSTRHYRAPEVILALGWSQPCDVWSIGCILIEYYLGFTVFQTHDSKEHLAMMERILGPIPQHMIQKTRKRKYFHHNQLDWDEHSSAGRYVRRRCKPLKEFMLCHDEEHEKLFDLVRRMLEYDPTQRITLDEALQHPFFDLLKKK
Dual specificity testis-specific protein kinase 2, sequence (Q96S53 whole entry): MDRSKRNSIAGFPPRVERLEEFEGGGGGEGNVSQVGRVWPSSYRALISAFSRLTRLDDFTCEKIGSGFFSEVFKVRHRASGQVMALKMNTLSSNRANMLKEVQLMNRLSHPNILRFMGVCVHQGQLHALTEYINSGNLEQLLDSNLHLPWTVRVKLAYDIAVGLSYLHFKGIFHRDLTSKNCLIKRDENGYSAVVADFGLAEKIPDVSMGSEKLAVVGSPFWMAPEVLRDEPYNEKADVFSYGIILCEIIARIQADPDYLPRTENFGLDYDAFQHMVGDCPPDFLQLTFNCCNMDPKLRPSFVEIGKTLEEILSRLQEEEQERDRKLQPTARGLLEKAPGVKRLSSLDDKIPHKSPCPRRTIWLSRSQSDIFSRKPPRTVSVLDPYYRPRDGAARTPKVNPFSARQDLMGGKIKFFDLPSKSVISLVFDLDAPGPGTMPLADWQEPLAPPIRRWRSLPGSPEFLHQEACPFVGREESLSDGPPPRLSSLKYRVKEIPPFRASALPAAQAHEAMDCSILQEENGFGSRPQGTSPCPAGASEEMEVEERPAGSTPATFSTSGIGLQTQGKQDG
Dual specificity protein kinase CLK2, sequence (P49760 whole entry): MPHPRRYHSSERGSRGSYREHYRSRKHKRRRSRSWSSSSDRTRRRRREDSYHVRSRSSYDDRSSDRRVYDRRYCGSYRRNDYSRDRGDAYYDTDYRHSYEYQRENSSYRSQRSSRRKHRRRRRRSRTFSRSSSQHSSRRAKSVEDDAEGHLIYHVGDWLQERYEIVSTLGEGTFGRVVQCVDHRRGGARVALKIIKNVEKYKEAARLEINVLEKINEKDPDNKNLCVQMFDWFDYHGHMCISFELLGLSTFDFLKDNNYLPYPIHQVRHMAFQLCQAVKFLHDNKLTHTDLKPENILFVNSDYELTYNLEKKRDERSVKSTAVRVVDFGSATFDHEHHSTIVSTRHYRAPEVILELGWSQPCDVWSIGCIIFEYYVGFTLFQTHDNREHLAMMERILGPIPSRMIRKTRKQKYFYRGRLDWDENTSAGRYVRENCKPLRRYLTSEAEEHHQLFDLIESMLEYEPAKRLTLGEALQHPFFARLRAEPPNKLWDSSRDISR
Glycogen synthase kinase-3 beta, sequence (P49841 whole entry, the tested form may be a part): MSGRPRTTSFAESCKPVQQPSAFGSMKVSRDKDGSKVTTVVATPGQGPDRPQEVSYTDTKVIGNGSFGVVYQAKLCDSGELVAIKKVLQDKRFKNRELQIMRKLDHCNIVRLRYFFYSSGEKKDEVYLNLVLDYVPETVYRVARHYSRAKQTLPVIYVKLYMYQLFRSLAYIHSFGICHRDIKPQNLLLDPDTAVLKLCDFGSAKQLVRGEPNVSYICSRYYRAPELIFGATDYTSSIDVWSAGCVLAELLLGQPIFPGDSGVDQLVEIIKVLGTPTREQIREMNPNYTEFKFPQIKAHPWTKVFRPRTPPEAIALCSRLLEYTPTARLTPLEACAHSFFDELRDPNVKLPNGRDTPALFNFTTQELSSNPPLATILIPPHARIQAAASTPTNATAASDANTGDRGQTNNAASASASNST
Serine/threonine-protein kinase Nek7, sequence (Q8TDX7 whole entry): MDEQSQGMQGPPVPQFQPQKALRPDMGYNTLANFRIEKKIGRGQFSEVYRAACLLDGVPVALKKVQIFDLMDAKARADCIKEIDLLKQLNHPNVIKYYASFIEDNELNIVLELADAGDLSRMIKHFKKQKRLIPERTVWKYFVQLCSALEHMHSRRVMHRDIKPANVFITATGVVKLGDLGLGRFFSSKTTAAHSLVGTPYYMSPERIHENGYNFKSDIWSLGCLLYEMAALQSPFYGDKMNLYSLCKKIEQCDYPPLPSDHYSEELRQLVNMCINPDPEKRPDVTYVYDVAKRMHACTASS
Membrane-associated progesterone receptor component 1, sequence (O00264 whole entry): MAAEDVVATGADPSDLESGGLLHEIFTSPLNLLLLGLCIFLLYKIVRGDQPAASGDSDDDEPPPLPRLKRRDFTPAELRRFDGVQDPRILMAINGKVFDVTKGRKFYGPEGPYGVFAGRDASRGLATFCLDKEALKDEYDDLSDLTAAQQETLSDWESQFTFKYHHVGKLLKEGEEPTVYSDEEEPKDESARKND

Kd [1] | Kd (Myosin-10) | Kd [2] | Kd [3] | Kd [4] | Kd [5] | Kd [6] | Kd [7] | Kd [8] | Kd [9] | Kd [10] | Kd [11] | Kd [12] | Kd [13] | Kd [14] | Kd [15] | Kd [16] | Kd [17] | Kd [18] | SMILES
> 30 µM (inactive) | > 30 µM (inactive) | > 30 µM (inactive) | > 30 µM (inactive) | > 30 µM (inactive) | > 30 µM (inactive) | > 30 µM (inactive) | 0.028 µM (active) | > 30 µM (inactive) | > 30 µM (inactive) | > 30 µM (inactive) | > 30 µM (inactive) | > 30 µM (inactive) | > 30 µM (inactive) | > 30 µM (inactive) | > 30 µM (inactive) | > 30 µM (inactive) |  |  | COc1ccc2c(OCc3nnc4ccc(-c5ccccc5)nn34)ccnc2c1 [AMG-208]
> 30 µM (inactive) | > 30 µM (inactive) | > 30 µM (inactive) | > 30 µM (inactive) | > 30 µM (inactive) | > 30 µM (inactive) | > 30 µM (inactive) | > 30 µM (inactive) | > 30 µM (inactive) |  | > 30 µM (inactive) | > 30 µM (inactive) | > 30 µM (inactive) | > 30 µM (inactive) | > 30 µM (inactive) | > 30 µM (inactive) | > 30 µM (inactive) | > 30 µM (inactive) | > 30 µM (inactive) | Cc1cc(Nc2nc(N[C@@H](C)c3ncc(F)cn3)ncc2Cl)n[nH]1 [AZD-1480]
> 30 µM (inactive) | > 30 µM (inactive) | > 30 µM (inactive) |  | > 30 µM (inactive) | > 30 µM (inactive) | > 30 µM (inactive) | > 30 µM (inactive) | > 30 µM (inactive) | > 30 µM (inactive) | > 30 µM (inactive) |  | > 30 µM (inactive) | > 30 µM (inactive) | > 30 µM (inactive) | > 30 µM (inactive) | > 30 µM (inactive) | > 30 µM (inactive) | > 30 µM (inactive) | COc1cc(Nc2ncc(F)c(Nc3ccc4c(n3)N(COP(=O)(O)O)C(=O)C(C)(C)O4)n2)cc(OC)c1OC [FOSTAMATINIB]
> 30 µM (inactive) | > 30 µM (inactive) | > 30 µM (inactive) | > 30 µM (inactive) | > 30 µM (inactive) | > 30 µM (inactive) | > 30 µM (inactive) | > 30 µM (inactive) | > 30 µM (inactive) | > 30 µM (inactive) | 10.1 µM (active) | > 30 µM (inactive) | > 30 µM (inactive) | > 30 µM (inactive) | > 30 µM (inactive) | > 30 µM (inactive) | > 30 µM (inactive) | > 30 µM (inactive) | > 30 µM (inactive) | C#Cc1cccc(Nc2ncnc3cc4c(cc23)OCCOCCOCCO4)c1 [ICOTINIB]
> 30 µM (inactive) | > 30 µM (inactive) |  | > 30 µM (inactive) | > 30 µM (inactive) | > 30 µM (inactive) | > 30 µM (inactive) | > 30 µM (inactive) | > 30 µM (inactive) | > 30 µM (inactive) | > 30 µM (inactive) | > 30 µM (inactive) | > 30 µM (inactive) |  |  | > 30 µM (inactive) | > 30 µM (inactive) | > 30 µM (inactive) | > 30 µM (inactive) | O=C(NOC[C@H](O)CO)c1ccc(F)c(F)c1Nc1ccc(I)cc1F [MIRDAMETINIB]
> 30 µM (inactive) | > 30 µM (inactive) | > 30 µM (inactive) | > 30 µM (inactive) | > 30 µM (inactive) | > 30 µM (inactive) | > 30 µM (inactive) | > 30 µM (inactive) | > 30 µM (inactive) | > 30 µM (inactive) | > 30 µM (inactive) | > 30 µM (inactive) | > 30 µM (inactive) | > 30 µM (inactive) | > 30 µM (inactive) | > 30 µM (inactive) | > 30 µM (inactive) | > 30 µM (inactive) |  | O=C(Nc1ccc(OC(F)(F)F)cc1)c1sccc1NCc1ccnc2ccccc12 [OSI-930]
> 30 µM (inactive) | > 30 µM (inactive) |  |  | > 30 µM (inactive) | > 30 µM (inactive) | > 30 µM (inactive) | > 30 µM (inactive) | > 30 µM (inactive) | > 30 µM (inactive) | > 30 µM (inactive) | > 30 µM (inactive) | > 30 µM (inactive) | > 30 µM (inactive) | 0.021 µM (active) | > 30 µM (inactive) | > 30 µM (inactive) | > 30 µM (inactive) | > 30 µM (inactive) | Cn1c(=O)c(F)c(Nc2ccc(I)cc2F)c2c(=O)n(C[C@@H](O)CO)cnc21 [TAK-733]
> 30 µM (inactive) | > 30 µM (inactive) | > 30 µM (inactive) | > 30 µM (inactive) | > 30 µM (inactive) | > 30 µM (inactive) | > 30 µM (inactive) | > 30 µM (inactive) | > 30 µM (inactive) | > 30 µM (inactive) | > 30 µM (inactive) | > 30 µM (inactive) | > 30 µM (inactive) | > 30 µM (inactive) | > 30 µM (inactive) | > 30 µM (inactive) | > 30 µM (inactive) | > 30 µM (inactive) |  | CNC(=O)c1cccc(-c2ccc3c(N4CCOC[C@@H]4C)nc(N4CCOC[C@@H]4C)nc3n2)c1 [VISTUSERTIB]

SMILES | Kd [1] | Kd (Myosin-10) | Kd [2] | Kd [3] | Kd [4] | Kd [5] | Kd [6] | Kd [7] | Kd [8] | Kd [9] | Kd [10] | Kd [11] | Kd [12] | Kd [13] | Kd [14] | Kd [15] | Kd [16] | Kd [17] | Kd [18]
O=S(=O)(c1cccc2cnccc12)N1CCCNCC1 [FASUDIL] |  | > 30 µM (inactive) |  |  | > 30 µM (inactive) | > 30 µM (inactive) |  |  |  | > 30 µM (inactive) |  |  |  | > 30 µM (inactive) |  | > 30 µM (inactive) | > 30 µM (inactive) | > 30 µM (inactive) | > 30 µM (inactive)
Cc1c(Cn2c(C)nc3c(C(=O)O)cc(N4CCOCC4)cc32)cccc1C(F)(F)F [GSK-2636771] | > 30 µM (inactive) |  | > 30 µM (inactive) | > 30 µM (inactive) | > 30 µM (inactive) | > 30 µM (inactive) | > 30 µM (inactive) | > 30 µM (inactive) | > 30 µM (inactive) |  | > 30 µM (inactive) | > 30 µM (inactive) | > 30 µM (inactive) | > 30 µM (inactive) | > 30 µM (inactive) | > 30 µM (inactive) | > 30 µM (inactive) |  | > 30 µM (inactive)
